From patent US9328115B2, “Process for preparing meropenem trihydrate” (DAEWOONG PHARMACEUTICAL CO., LTD., priority 2012, dated 2016)

Experiment: Water-solubility measurement at 26° C.
Type: physicochemical
Settings: in water, measured at 26° C.
Description: The water-solubilities of the methanol solvate of meropenem obtained in the above as well as meropenem trihydrate were measured at 26° C.

In the case of `C[C@@H](O)[C@H]1C(=O)N2C(C(=O)O)=C(S[C@@H]3CN[C@H](C(=O)N(C)C)C3)[C@H](C)[C@H]12` [meropenem trihydrate, (4R,5S,6S)-3-((3S,5S)-5-(dimethylcarbamoyl)pyrrolidin-3-ylthio)-6-((R)-1-hydroxyethyl)-4-methyl-7-oxo-1-azabicyclo[3.2.0]hept-2-ene-2-carboxylic acid], the water-solubility is reported as 16.4 mg/mL.
Work on `C[C@@H](O)[C@H]1C(=O)N2C(C(=O)O)=C(S[C@@H]3CN[C@H](C(=O)N(C)C)C3)[C@H](C)[C@H]12` [methanol solvate of meropenem, (4R,5S,6S)-3-((3S,5S)-5-(dimethylcarbamoyl)pyrrolidin-3-ylthio)-6-((R)-1-hydroxyethyl)-4-methyl-7-oxo-1-azabicyclo[3.2.0]hept-2-ene-2-carboxylic acid] yielded a water-solubility of 57.6 mg/mL.
